Data taken from patent publication US20240240136A1, “SELECTIVE LYSIS OF MAMMALIAN EUKARYOTIC CELLS AND VISUALIZATION OF VIABLE BACTERIAL CELLS” (priority 2021, published 2024).
Converted amounts (≈) assume the structure as drawn. Counter-ions that a name gives are not always drawn. Like-named read-outs stand apart in the source and are kept apart here.

Key:
E. coli ATCC 25922 = assay: Antibiotic susceptibility testing with lysis buffer sample preparation and PB detection; assay type: cell-based; conditions: for MIC: E. coli ATCC 25922 spiked in blood and MH media, 16 hr of incubation; for growth of bacteria (OD value) with increase in antibiotic concentration: ampicillin 2 mg/L to 16 mg/L, gentamicin 0.5 mg/L to 8 mg/L, after 16 hr of incubation
From the text: FIGS. 7 and 8 show antibiotic susceptibility testing. The lysis buffer based sample preparation method combined with detection using PB formation was used to perform antibiotic susceptibility testing (recommended by EUCAST [15]) using different concentration of ampicillin and gentamicin in separate experiments, on E. coli ATCC 25922 bacteria strain (10^6 CFU/mL) spiked in blood (sample) and in MH media (positive control). ‘MH+Lysis buffer’ is used as negative control (NC). […] The corresponding decrease in PB colour formation on the filter paper with increase in ampicillin and gentamicin concentration is shown on top of each bar in the graphs of the FIG. 7 and FIG. 8, respectively. The MIC of ampicillin and gentamicin was determined to be 16 and 8 mg/L respectively, which was in agreement with the MIC range provided by EUCAST for E. coli ATCC 25922.

Row | Molecule | MIC (E. coli ATCC 25922) | growth of bacteria (OD value) with increase in antibiotic concentration (E. coli ATCC 25922) | toxicity to bacteria (bacteria) | MIC (E. coli ATCC 25922; Escherichia coli, ATCC25922, read-out: MIC)
1 | gentamicin | 8 µg/mL | growth of bacteria decreased |  | 
2 | O=C(O)CC(O)(CC(=O)O)C(=O)O [Citrate, ferric ammonium citrate] |  |  | not toxic | 
3 | CC1(C)S[C@@H]2[C@H](NC(=O)[C@H](N)c3ccccc3)C(=O)N2[C@H]1C(=O)O [ampicillin] |  | growth of bacteria decreased |  | 16 µg/mL (≈ 45.8 µM)
